Measurements: US9765039B2, “Biaryl derivatives as bromodomain inhibitors” (Zenith Epigenetics Ltd., priority 2012, dated 2017)

How the values were obtained:
Brd4 bromodomain 1 = target: T1, Brd4 bromodomain 1 (Homo sapiens, UniProt O60885); test: Inhibition of tetra-acetylated histone H4 binding to BET bromodomains (TR-FRET); parameters: key: Active: Compounds with an IC50 value less than 30 μM were deemed to be active.; Not Active: Compounds with an IC50 value less than 30 μM were deemed to be active; details: first bromodomain of Brd4, tetra-acetylated histone H4 peptide
T1 construct: made in house; host or cells: E. coli BL21(DE3)
Method in brief: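 TR-FRET with N-terminally His-tagged bromodomains (200 nM, E. coli-expressed, Ni affinity and SEC-purified) and biotinylated tetra-acetylated histone H4 peptide (25–50 nM), detected with Eu-cryptate streptavidin and XL665 anti-His antibody. Buffer 30 mM HEPES pH 7.4, 320 mM KF, 0.08% BSA, 0.2% DMSO; 2 h RT. IC50 from decrease in 665/620 nm ratio.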

hIL-6 mRNA = test: Inhibition of hIL-6 mRNA transcription in LPS-stimulated U937 macrophages; format: cell-based, human; parameters: key: Active: Compounds with an IC50 value less than 30 μM are deemed to be active; details: U937 differentiated into macrophages, 1 h pretreatment, lipopolysaccharide 3 h
Method in brief: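 U937 cells differentiated 3 days with 60 ng/mL PMA, pretreated 1 h with compound, then stimulated with […] E. coli LPS for 3 h at 37° C. hIL-6 mRNA quantified by one-step real-time RT-PCR, Ct normalised to internal control and expressed as fold induction relative to control.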

Human AML MV-4-11 cells = test: Inhibition of cell proliferation in cancer cell lines (CellTiter Aqueous One); format: cell-based; parameters: key: Active: Compounds with an IC50 value less than 30 μM were deemed to be active.; Not Active: Compounds with an IC50 value less than 30 μM were deemed to be active; details: 72 hours
Method in brief: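 Exponentially growing MV-4-11 cells were treated immediately with two-fold compound dilutions from 30 µM to 0.2 µM in triplicate for 72 h at 37 °C. Viability was read by MTS (CellTiter Aqueous One) absorbance at 490 nm after 3-4 h; % proliferation vs DMSO gave IC50.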

hApoA-1 mRNA = test: Up-regulation of hApoA-1 mRNA transcription in Huh7 cells; format: cell-based, human; parameters: key: Active: Compounds with an EC170 value less than 30 μM are deemed to be active.; Not Active: Compounds with an EC170 value less than 30 μM are deemed to be active; details: 48 hrs treatment, ApoA-I mRNA
Method in brief: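 Huh7 cells plated 24 h before compound, then treated 48 h; mRNA isolated from lysates and ApoA-I quantified by one-step real-time PCR. Fold induction derived from Ct values relative to the matching DMSO control; EC170 reported as activity measure.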

c-myc = test: Inhibition of c-myc expression in cancer cell lines (mRNA, real-time PCR); format: cell-based; parameters: key: Active: Compounds with an IC50 value less than 30 μM were deemed to be active; details: Human AML MV4-11 cells, 3 hours
Method in brief: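 MV4-11 cells (2.5×10^4) exposed to compound or 0.1% DMSO for 3 h at 37° C, then lysed for mRNA isolation. c-myc and cyclophilin cDNAs co-amplified by duplex RT real-time PCR. IC50 from dose-response curve.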

IL-6 = test: In vivo efficacy in mouse endotoxemia model (IL-6); details: C57/B16 mice; orally at 75 mg/kg; 4 hour challenge with LPS 0.5 mg/kg intraperitoneally
Method: Sub lethal doses of Endotoxin (E. coli bacterial lipopolysaccharide) were administered to animals to produce a generalized inflammatory response which was monitored by increases in secreted cytokines. Compounds were administered to C57/B16 mice orally at 75 mg/kg dose to evaluate inhibition in IL-6 and IL-17 cytokines post 4 hour challenge with Lipopolysaccharide (LPS) at 0.5 mg/kg dose intraperitoneally.

arthritic rats = test: In vivo efficacy in rat collagen induced arthritis; parameters: species or system female Lewis strain of rats; details: collagen Day 1 and 7, dosed Day 11 to Day 17
Method: Rat collagen-induced arthritis is an experimental model of polyarthritis that has been widely used for preclinical testing of numerous anti-arthritic agents. Following administration of collagen, this model establishes a measurable polyarticular inflammation, marked cartilage destruction in association with pannus formation and mild to moderate bone resorption and periosteal bone proliferation. In this model, collagen was administered to female Lewis strain of rats on Day 1 and 7 of study and dosed with compounds from Day 11 to Day 17. Compounds were evaluated to assess the potential to inhibit the inflammation (including paw swelling), cartilage destruction and bone resorption in arthritic rats, using a model in which the treatment is administered after the disease has been established.

## COc1cc(OC)c2c(=O)[nH]c(-c3ccc(OCCNC(C)C)c(-c4ccc(S(C)(=O)=O)cc4)n3)nc2c1 [Example 27, 2-(5-(2-(Isopropylamino)ethoxy)-6-(4-(methylsulfonyl)phenyl)pyridin-2-yl)-5,7-dimethoxyquinazolin-4(3H)-one]
Brd4 bromodomain 1
  FRET activity (IC50 < 30 μM): Active
hIL-6 mRNA
  IL-6 activity (IC50 < 30 μM): Active
Human AML MV-4-11 cells
  cell proliferation activity (IC50 < 30 μM): Active
hApoA-1 mRNA
  ApoA-1 Activity (EC170 < 30 μM): Active
c-myc
  c-myc activity (IC50 < 30 μM): Active
IL-6
  In vivo Activity (IL-6): Active

## COc1cc(OC)c2c(=O)[nH]c(-c3ccc(OC)c(-c4ccc([S+](C)[O-])cc4)n3)nc2c1 (stereo not shown) [Example 50, 5,7-Dimethoxy-2-(5-methoxy-6-(4-(methylsulfinyl)phenyl)pyridin-2-yl)quinazolin-4(3H)-one]
Arthritic rats
  In vivo Activity: Active
Brd4 bromodomain 1
  FRET activity (IC50 < 30 μM): Active
hIL-6 mRNA
  IL-6 activity (IC50 < 30 μM): Active
Human AML MV-4-11 cells
  cell proliferation activity (IC50 < 30 μM): Active
hApoA-1 mRNA
  ApoA-1 Activity (EC170 < 30 μM): Active
c-myc
  c-myc activity (IC50 < 30 μM): Active
other
  melting point: 266 to 267 °C
